Reference: ChEMBL document CHEMBL3886281, “Furo[3,4-c]quinoline derivatives, medicaments containing such compounds, their use and process for their preparation” (2015)

Biological target: T1, Cholesteryl ester transfer protein (Homo sapiens, UniProt P11597)
T1 sequence (P11597 whole entry): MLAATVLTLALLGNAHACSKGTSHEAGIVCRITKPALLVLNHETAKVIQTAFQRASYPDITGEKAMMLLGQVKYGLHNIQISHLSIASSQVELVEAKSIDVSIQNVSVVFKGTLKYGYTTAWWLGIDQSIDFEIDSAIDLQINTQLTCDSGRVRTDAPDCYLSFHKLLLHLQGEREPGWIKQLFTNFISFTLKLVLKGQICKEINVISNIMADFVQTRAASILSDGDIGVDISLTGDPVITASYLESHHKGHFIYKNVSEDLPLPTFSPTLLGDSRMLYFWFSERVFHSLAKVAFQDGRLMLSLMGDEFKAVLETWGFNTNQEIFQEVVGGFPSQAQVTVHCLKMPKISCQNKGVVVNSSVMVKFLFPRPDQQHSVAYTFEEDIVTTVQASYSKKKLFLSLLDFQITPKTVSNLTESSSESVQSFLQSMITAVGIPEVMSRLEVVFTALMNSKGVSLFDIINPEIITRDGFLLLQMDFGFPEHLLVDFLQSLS
Assay: CETP In Vitro Assay: CETP inhibitory activity of compounds of the present invention can be determined in a fluorometric assay purchased from Roar Biomedical, Inc. (New York, N.Y., USA). […] Recombinant human CETP was partially purified from medium conditioned by CETP expressing CHO cells. In a 384 well format 2.5 ul of compound solution in DMSO was combined with 2 ul of donor solution, 2 ul of acceptor solution and 0.8 ul of recombinant human CETP solution in a total volume of 100 ul with assay buffer and incubated for 3 hours at 37° C. The fluorescence intensity was measured at excitation wavelength of 485 nm and emission wavelength of 535 nm.

CC(C)c1nc2c(c3c1[C@@H](c1ccc(C(F)(F)F)nc1)OC31CCOCC1)[C@@H](O)CC1(CC1)[C@H]2O
IC50: 210 nM
